Source: publication PMC8224453, “A New PqsR Inverse Agonist Potentiates Tobramycin Efficacy to Eradicate Pseudomonas aeruginosa Biofilms” (Advanced Science, 2021)
Read-outs that look alike come from different tables or passages of the source.

What was measured:
[1] = target: T1, CYP3A4 (Homo sapiens, UniProt P08684); assay: CYP inhibition (Cyprotex); format: in vitro ADME; details: read-out: CYP inhibition 3A4
T1 construct: Cyprotex (contract assay)
Protocol: (§1) 5.2. CYP and hERG inhibition
(§2) Assessment of in vitro drug safety regarding Cytochrom P450 (CYP) inhibition and inhibiton of human ether-à-go-go related gene (hERG) channel with a functional (patch-clamp-based) assay were performed at Cyprotex. Detailed information about the assays can be found in: https://www.cyprotex.com/admepk/in-vitro-metabolism/cytochrome-p450-inhibition, and […]

[2] = target: T2, CYP1A (Homo sapiens, UniProt P05177); assay: CYP inhibition (Cyprotex); format: in vitro ADME; details: read-out: CYP inhibition 1A
T2 construct: Cyprotex (contract assay)
T2 sequence (P05177 2-516 limits assumed): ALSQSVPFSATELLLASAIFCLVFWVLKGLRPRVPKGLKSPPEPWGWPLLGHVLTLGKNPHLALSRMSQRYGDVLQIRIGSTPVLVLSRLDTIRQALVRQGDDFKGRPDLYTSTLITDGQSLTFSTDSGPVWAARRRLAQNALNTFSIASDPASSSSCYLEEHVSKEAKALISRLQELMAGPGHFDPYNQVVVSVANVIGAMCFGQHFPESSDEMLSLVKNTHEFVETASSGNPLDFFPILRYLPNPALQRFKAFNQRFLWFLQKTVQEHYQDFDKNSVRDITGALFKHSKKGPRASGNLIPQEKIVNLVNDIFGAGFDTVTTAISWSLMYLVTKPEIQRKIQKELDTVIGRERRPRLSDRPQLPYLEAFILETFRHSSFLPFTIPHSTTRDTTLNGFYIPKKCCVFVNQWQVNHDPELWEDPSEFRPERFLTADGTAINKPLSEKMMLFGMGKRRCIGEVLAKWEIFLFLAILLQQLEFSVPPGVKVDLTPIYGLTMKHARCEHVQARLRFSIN
Protocol: as §1, §2

[3] = Metabolic stability, human liver S9; format: in vitro ADME
Protocol: For the evaluation of combined phase I and phase II metabolic stability, the compound (1 μM) was incubated with 1 mg/mL pooled liver S9 fraction from the respective species (Xenotech), […]
2 mM NADPH, 1 mM UDPGA, 10 mM MgCl2, 5 mM GSH and 0.1 mM PAPS at 37 °C for […]
0, 5, 15, 30 or 60 min. The metabolic stability of Testosterone (1 μM) and verapamil (1 μM) […]
were determined in parallel to confirm the enzymatic activity of the S9 fraction. The […]
incubation was stopped by precipitation of S9 enzymes with 2 volumes of cold acetonitrile […]
containing internal standard (750 nM Diphenhydramine). Samples were stored on ice for 10 […]
min and precipitated protein was removed by centrifugation (10 min, 4 °C, 17,000 g).
Concentration of the remaining test compound at the different time points was analyzed by […]
LC-MS/MS (TSQ Quantum Access MAX, Thermo Fisher, Dreieich, Germany) and used to […]
determine half-life (t1/2). Stability of compound 4 in further S9 fractions are summarized in […]
Table S4. Metabolic stability studies in various S9 fractions. […]

[4] = system: pyocyanin production in PA14 wt; assay: Pyocyanin assay in PA14 wt; format: cell-based; details: Pseudomonas aeruginosa, PA14, read-out: IC50 pyocyanin
Protocol: The pyocyanin inhibitory effect of the synthesized compounds and the compound (4) loaded SqNPs on PA14 wt were investigated by pyocyanin assay as described in previous work.[2,5] Briefly, PA14 wt was grown in PPGAS medium, overnight, at 37 °C, shaking at 200 rpm. The bacterial suspension was then centrifuged at 7.450 g, washed twice and diluted to a final OD600 (absorption at 600 nm) of 0.02 (2∙10^7 CFU/mL) in fresh PPGAS. 1.5 mL of the […]
(1 picture or pasted object on this page, not shown here) […]
culture was distributed in each well of the 24 well-plate. The free synthesized QSI prepared in DMSO, compound (4) loaded SqNPs were supplemented to bacteria-containing wells (1:100 dilutions). PA14 wt treated with either PBS or drug-free SqNPs (200 μg/mL) served as controls. Following 16 h incubation under aerobic conditions, pyocyanin in 900 μL of bacteria culture was extracted with chloroform and re-extracted with 0.2 M HCl. Pyocyanin production level was measured as the absorption at 520 nm, which was normalized to cell growth measured as OD600. 0.2 M HCl served as blank samples. Three independent experiments were conducted in triplicate. Non-linear regression analysis was performed using […]
(4) loaded SqNPs on PA14 wt. The pyocyanin inhibitory efficacy was improved by a factor of […]
It is noted that as reported in our prior
Figure S2. The production of pyocyanin levels compared to control PA14 wide type (wt) of the samples treated with 200 μg/mL drug free SqNPs. Three independent experiments were conducted in triplicate. […]
(also on this page, place not known: ( 4) -containing -free bacteria re -extracted compo und ( 4) (IC 50 nM ) (IC 50 nM ). drug P A14 5,6,7,8 -tetradeutero-2-heptyl-4(1H)-quinolone standa rd -40 -20 0 20 40 60 80 100 120 0.005 0.05 0.5 pyo production inhibition [%] Compound concentration loaded SqNPs [µM] IC50 = 100 ± 0.018 [nM])

[5] = system: alkylquinolones PQS and HHQ in P. aeruginosa PA14; assay: Alkylquinolone inhibition assay in PA14; format: cell-based; details: Pseudomonas aeruginosa
Protocol: 4. Secondary Activity Assays
4.1. Alkylquinolone Inhibition Assay
The inhibitory effect of the synthesized compounds on alkylquinolone production in PA was measured as previously described with the modification that wt PA14 was used instead of PA14pqsH.[6] Briefly, P. aeruginosa PA14 cultures were grown in the presence of DMSO as a control or DMSO solutions of inhibitors for 17 h. HHQ and PQS as well as HQNO were quantified from ethyl acetate extracts using 5,6,7,8-tetradeutero-2-heptyl-4(1H)-quinolone (HHQ-d4) as internal standard (IS). LC-ESI-MS/MS analysis was performed on a Dionex […]
(1 picture or pasted object on this page, not shown here)
Scientific, Waltham MA) with the following conditions: Zorbax Eclipse XDB 80 Å C18 5 µm 4.6 x 50 mm column (Agilent, Santa Clara, CA, USA); eluent A – H2O with 0.1% trifluoroacetic acid (TFA), 0.1% pentafluoropropionic acid (PFPA), 0.1% heptafluorobutyric acid (HFBA); eluent B – acetonitrile with 0.1% TFA, 0.1% PFPA, 0.1% HFBA; isocratic 50% A; flow – 0.7 mL/min. TSQ Quantum Access Max (Thermo Fisher Scientific, Waltham, MA, USA) instrument parameters: Spray voltage 3500 V, vaporizer temperature 370 °C, sheath gas pressure 35 psi, aux gas pressure 30 psi, capillary temperature 270 °C, collision pressure 1.5 mTorr, positive ionization mode. For AQ analyte reaction monitoring parameters […]
Data acquisition and quantification was performed using Xcalibur software with the use of a calibration curve relative to the area of the IS. IC50 values were calculated according to the procedure of the pyocyanin assay (see above).
Table S1: LC-ESI-MS/MS reaction monitoring parameters of AQ analytes in positive ionization mode. precursor product collision tube lens retention ion m/z ion m/z energy (V) offset (V) time (min)
Chemical and biological materials for in vitro assays: All chemicals were purchased from Sigma-Aldrich unless otherwise specified. Yeast extract was obtained from Fluka. Bacto™ Tryptone were obtained from BD Biosciences. Luria Bertani (LB) agar was obtained from Carl Roth. Gibco® PBS was obtained from Life Te chnologies. Purified water was prepared by a Milli-Q water purification system (Merk Millipore, Billerica, MA). The PA strain PA14 wild type (PA14 wt) was purchased from DSMZ, the German Collection of Microorganism and Cell Cultures GmbH (PA14 = DSMZ19882) and cultured in minimal proteose peptone glucose ammonium salt (PPGAS) medium. PPGAS was composed of 1 g/L NH4Cl, 1.5 g/L KCl, 19 g/L Tris-HCl, 10 g/L peptone, 5 g/L glucose and 0.1 g/L MgSO4∙7H2O. The pH value of the medium was adjusted to 7.2 ± 0.2 and sterilized before use. Agar solution was […]

[6] = pooled human liver S9 fraction, Table 2, read-out: Metabolic stability t 1/2 S9 human

T1 sequence (P08684 whole entry): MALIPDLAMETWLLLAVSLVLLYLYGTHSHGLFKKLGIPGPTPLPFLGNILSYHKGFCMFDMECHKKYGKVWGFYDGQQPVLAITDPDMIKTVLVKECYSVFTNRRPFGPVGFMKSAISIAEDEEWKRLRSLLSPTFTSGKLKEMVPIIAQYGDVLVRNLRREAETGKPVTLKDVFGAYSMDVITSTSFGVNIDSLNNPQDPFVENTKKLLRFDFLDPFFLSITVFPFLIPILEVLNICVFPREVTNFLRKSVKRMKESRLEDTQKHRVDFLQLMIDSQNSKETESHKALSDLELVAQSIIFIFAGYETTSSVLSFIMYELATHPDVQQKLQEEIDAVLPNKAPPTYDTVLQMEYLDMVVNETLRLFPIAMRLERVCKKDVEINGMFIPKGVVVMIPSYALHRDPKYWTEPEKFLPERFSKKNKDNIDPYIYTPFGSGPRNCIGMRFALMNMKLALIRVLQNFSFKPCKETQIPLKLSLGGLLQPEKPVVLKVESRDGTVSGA

SMILES	IC50 [1] [nM]	IC50 [2] [nM]	half-life at 1 μM [3, 6] [h]	half-life at 1 μM ([3]; pooled liver S9 fraction, Table S4, read-out: t1/2 human liver S9) [h]	IC50 [4] [nM]	IC50 ([5]; PA14, read-out: IC50(HHQ)) [nM]	IC50 ([5]; PA14, read-out: IC50(PQS)) [nM]
FC(F)(F)c1cc(NCc2cn(-c3ccc(Oc4ccccc4)cc3)nn2)ccn1 [Compound 4]	15000	> 25000	2.82	1.13 ± 0.15	199	370 ± 70	1130
COc1ccc(-n2cc(CNc3ccnc(C(F)(F)F)c3)nn2)cc1Cl [Compound 17]	> 25000	22100	0.7	–	350	1320 ± 390	2080 ± 370
